Values joined by “and” are separate entries in the source; they are usually repeats but may differ in a detail not shown here. Equal entries are not always repeated. Where two headings read alike, the source gives them in different places.
Assays:
[1] = molecular target: CDK12–cyclin K (Homo sapiens, UniProt Q9NYV4); experiment: Lanthascreen kinase binding assay, CDK12; details: for IC50: Supplementary Table 2, read-out: Lanthascreen IC50 [nM] CDK12; for Lanthascreen raw signal, sheet CDK12: series r1, duplicates
Description: (§1) Lanthascreen experiments were performed using commercially available reagents (Thermo Fisher) and according to the manufacturer’s instructions.

[2] = system: cyclin K–eGFP degradation reporter; experiment: Cyclin K reporter stability analysis (dual-color cyclin K–eGFP reporter); format: cell-based, human; details: source data sheet correlations
Summary of the method: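 Readout was the eGFP-to-mCherry geometric-mean ratio by flow cytometry, normalized to three DMSO controls, after 5 h drug exposure. Cells used were HEK293T–Cas9 expressing the dual-colour cyclin K–eGFP degradation reporter.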

[3] = molecular target: T1, CDK9–cyclin T (Homo sapiens, UniProt P50750); experiment: Lanthascreen kinase binding assay, CDK9; details: for IC50: Supplementary Table 2, read-out: Lanthascreen IC50 [nM] CDK9; for Lanthascreen TR-FRET signal (raw ratio), sheet CDK9: first titration set (r1), duplicates
T1 construct: purchased Thermo Fisher
Description: as §1

[4] = molecular target: T2, CDK2–cyclin A (Homo sapiens, UniProt P24941); experiment: Lanthascreen kinase binding assay, CDK2; details: for Lanthascreen signal, sheet CDK2: raw replicates, experiment r1-r11
T2 construct: purchased Thermo Fisher
Description: as §1

[5] = system: HEK293T cells; experiment: Drug sensitivity assay (CellTiter-Glo viability) with or without MLN4924 pretreatment; format: cell-based, human; details: Supplementary Table 2; for EC50: Homo sapiens, HEK-293T, HEK293T viability, 72 h, compound alone, read-out: Cellular assays EC50; for Toxicity rescue: MLN4924-mediated cytotoxicity rescue, 10 µM used where n.d.
Summary of the method: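 Luminescent ATP read-out (CellTiter-Glo) after 3 days of drug exposure, normalised to DMSO controls. Cells were HEK293T–Cas9, pretreated with 100 nM MLN4924 or DMSO for 2 h before drug dispensing.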

[6] = molecular target: T3, CDK12–cyclin K and DDB1 (Homo sapiens, UniProt Q16531+Q9NYV4, K965R); experiment: TR-FRET ternary complex formation assay (compound titration); format: binding; details: for TR-FRET signal at compound concentration 0.468 nM / TR-FRET signal at compound concentration 2.16 nM / TR-FRET signal at compound concentration 3.6 nM / TR-FRET signal at compound concentration 7.92001 nM / TR-FRET signal at compound concentration 15.84 nM / TR-FRET signal at compound concentration 30.96 nM / TR-FRET signal at compound concentration 62.6401 nM / TR-FRET signal at compound concentration 125.28 nM / TR-FRET signal at compound concentration 244.8 nM / TR-FRET signal at compound concentration 993.601 nM / TR-FRET signal at compound concentration 2001.6 nM: raw replicate titration data
T3 construct: His6–CDK12 (a.a. 713–1,052); full-length or beta-propeller B domain deletion (ΔBPB: a.a. 396–705 deleted) constructs of His6–DDB1ΔBPB, StrepII–Avi–DDB1, or His6–Spy–DDB1; made in house; host or cells: Trichoplusia ni High Five insect cells (baculovirus)
Summary of the method: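 TR-FRET ratio 520/490 nm; 70 μs delay before read to suppress background.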

[7] = Supplementary Table 2, read-out: Lanthascreen IC50 [nM] CDK2
[8] = in vitro complex formation, 50 nM CDK12–cyclin K, 100 nM DDB1, text and figures, read-out: TR-FRET EC50
[9] = source data sheet correlations, read-out: TR-FRET EC50

T3 sequence (Q9NYV4 713-1052 K965R): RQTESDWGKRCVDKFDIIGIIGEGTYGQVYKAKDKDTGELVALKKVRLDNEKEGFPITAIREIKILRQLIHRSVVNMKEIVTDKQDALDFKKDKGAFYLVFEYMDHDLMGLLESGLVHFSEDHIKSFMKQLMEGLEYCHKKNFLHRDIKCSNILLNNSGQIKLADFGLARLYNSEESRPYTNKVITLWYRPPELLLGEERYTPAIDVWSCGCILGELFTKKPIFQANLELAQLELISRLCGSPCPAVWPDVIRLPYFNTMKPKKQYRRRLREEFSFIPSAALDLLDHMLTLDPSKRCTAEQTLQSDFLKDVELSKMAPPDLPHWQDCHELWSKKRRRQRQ
T3 sequence (O75909 1-267 partner): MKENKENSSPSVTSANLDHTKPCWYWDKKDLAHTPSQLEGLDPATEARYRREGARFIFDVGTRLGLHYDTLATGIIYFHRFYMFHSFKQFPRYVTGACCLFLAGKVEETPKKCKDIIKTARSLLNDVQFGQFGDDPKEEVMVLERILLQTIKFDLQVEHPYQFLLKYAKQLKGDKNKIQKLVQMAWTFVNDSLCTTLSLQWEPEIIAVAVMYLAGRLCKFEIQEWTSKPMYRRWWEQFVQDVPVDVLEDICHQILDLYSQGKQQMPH
T3 sequence (Q16531 whole entry): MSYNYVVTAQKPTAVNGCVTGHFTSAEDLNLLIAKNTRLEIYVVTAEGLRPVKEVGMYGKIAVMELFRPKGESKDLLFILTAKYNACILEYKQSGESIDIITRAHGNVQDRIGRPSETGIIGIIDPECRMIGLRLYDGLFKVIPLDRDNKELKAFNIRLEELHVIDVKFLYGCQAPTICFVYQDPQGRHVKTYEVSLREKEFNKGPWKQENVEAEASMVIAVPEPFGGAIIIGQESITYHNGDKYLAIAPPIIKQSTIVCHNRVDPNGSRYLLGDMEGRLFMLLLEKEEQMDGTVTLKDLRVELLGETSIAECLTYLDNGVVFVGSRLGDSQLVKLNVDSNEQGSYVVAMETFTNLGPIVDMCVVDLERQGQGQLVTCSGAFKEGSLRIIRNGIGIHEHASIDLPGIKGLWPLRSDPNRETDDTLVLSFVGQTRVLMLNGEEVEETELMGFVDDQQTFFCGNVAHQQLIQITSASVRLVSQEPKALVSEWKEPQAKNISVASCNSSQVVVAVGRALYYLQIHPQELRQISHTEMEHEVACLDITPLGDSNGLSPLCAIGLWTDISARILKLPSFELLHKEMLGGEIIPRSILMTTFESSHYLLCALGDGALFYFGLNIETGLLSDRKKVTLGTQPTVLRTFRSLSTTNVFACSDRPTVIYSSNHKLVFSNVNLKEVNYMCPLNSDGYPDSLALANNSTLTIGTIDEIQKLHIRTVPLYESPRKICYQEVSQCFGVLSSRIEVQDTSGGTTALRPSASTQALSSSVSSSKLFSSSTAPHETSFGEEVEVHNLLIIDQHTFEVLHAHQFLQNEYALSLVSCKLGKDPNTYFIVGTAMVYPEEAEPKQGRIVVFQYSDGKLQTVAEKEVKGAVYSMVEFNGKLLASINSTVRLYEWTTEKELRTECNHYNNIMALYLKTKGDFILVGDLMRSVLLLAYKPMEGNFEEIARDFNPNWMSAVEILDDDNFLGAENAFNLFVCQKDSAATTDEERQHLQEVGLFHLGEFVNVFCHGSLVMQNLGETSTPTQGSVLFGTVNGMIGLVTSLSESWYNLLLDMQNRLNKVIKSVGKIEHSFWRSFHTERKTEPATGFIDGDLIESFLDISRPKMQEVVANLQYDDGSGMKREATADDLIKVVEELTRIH
T1 sequence (P50750 whole entry): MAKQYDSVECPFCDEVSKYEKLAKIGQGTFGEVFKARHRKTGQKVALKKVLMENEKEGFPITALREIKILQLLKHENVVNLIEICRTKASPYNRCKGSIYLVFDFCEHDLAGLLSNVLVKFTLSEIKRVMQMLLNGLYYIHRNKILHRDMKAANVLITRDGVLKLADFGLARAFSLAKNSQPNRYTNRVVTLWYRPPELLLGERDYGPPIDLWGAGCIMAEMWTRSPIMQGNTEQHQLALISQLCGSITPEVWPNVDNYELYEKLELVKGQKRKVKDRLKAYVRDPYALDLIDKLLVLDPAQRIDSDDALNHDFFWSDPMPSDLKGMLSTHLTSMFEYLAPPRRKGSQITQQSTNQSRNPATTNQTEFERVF
T1 sequence (O60563 whole entry partner): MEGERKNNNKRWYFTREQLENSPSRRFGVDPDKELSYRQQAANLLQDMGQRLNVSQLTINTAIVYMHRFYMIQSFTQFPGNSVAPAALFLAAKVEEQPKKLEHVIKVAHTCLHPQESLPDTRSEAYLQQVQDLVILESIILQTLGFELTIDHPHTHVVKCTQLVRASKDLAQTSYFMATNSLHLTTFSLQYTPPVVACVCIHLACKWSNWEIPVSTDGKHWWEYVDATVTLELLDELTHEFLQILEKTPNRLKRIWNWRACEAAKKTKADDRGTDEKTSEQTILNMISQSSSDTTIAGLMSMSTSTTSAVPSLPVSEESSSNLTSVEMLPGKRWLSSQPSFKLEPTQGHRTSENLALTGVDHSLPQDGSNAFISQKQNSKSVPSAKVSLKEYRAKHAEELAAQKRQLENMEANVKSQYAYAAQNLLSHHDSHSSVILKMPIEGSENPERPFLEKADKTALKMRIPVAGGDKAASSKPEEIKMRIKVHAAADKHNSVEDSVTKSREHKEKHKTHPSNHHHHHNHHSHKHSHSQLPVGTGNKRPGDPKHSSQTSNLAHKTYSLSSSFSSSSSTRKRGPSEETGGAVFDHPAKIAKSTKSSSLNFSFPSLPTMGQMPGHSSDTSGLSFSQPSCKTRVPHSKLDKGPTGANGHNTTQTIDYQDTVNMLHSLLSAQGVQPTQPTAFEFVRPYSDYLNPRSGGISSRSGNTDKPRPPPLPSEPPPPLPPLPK
Chain of CDK12–cyclin K (Q9NYV4 713-1052): as the sequence (Q9NYV4 713-1052 K965R) above, with R253K counted along it
Chain of CDK12–cyclin K (O75909 1-267 partner limits assumed): as the sequence (O75909 1-267 partner) above

## CN1CCN(c2nc(NCc3nc4c(F)c(F)ccc4[nH]3)n3ncc(Br)c3n2)CC1 [DS71]
[1]
  IC50: 134 nM
[1]; compound 1.02544 nM
  Lanthascreen raw signal, sheet CDK12: 0.006087 and 0.009032
[1]; compound 3.15521 nM
  Lanthascreen raw signal, sheet CDK12: 0.01061 and 0.007755
[1]; compound 9.46563 nM
  Lanthascreen raw signal, sheet CDK12: 0.009135 and 0.006327
[1]; compound 31.5521 nM
  Lanthascreen raw signal, sheet CDK12: 0.007705 and 0.007896
[1]; compound 99.3891 nM
  Lanthascreen raw signal, sheet CDK12: 0.007199 and 0.007003
[1]; compound 315.521 nM
  Lanthascreen raw signal, sheet CDK12: 0.006511 and 0.005836
[1]; compound 3155.21 nM
  Lanthascreen raw signal, sheet CDK12: 0.006388 and 0.004562
[1]; compound 10002 nM
  Lanthascreen raw signal, sheet CDK12: 0.005868 and 0.005096
[2]; log value
  DC50: 4 nM
[2]; read-out: DC50
  DC50: 4 nM
[3]
  IC50: 684 nM
[3]; compound 1.02544 nM
  Lanthascreen TR-FRET signal (raw ratio), sheet CDK9: 0.01471 and 0.01339
[3]; compound 3.15521 nM
  Lanthascreen TR-FRET signal (raw ratio), sheet CDK9: 0.01367 and 0.0125
[3]; compound 9.46563 nM
  Lanthascreen TR-FRET signal (raw ratio), sheet CDK9: 0.01267 and 0.01475
[3]; compound 31.5521 nM
  Lanthascreen TR-FRET signal (raw ratio), sheet CDK9: 0.01209 and 0.01181
[3]; compound 99.3891 nM
  Lanthascreen TR-FRET signal (raw ratio), sheet CDK9: 0.01168 and 0.01283
[3]; compound 315.521 nM
  Lanthascreen TR-FRET signal (raw ratio), sheet CDK9: 0.01175 and 0.01042
[3]; compound 3155.21 nM
  Lanthascreen TR-FRET signal (raw ratio), sheet CDK9: 0.005807 and 0.004691
[3]; compound 10002 nM
  Lanthascreen TR-FRET signal (raw ratio), sheet CDK9: 0.004107 and 0.003744
[4]; Compound 1.02544 nM
  Lanthascreen signal, sheet CDK2: 0.009545 and 0.009565
[4]; Compound 3.15521 nM
  Lanthascreen signal, sheet CDK2: 0.01077 and 0.01025
[4]; Compound 9.46563 nM
  Lanthascreen signal, sheet CDK2: 0.009718 and 0.00939
[4]; Compound 31.5521 nM
  Lanthascreen signal, sheet CDK2: 0.009822 and 0.01021
[4]; Compound 99.3891 nM
  Lanthascreen signal, sheet CDK2: 0.009696 and 0.01058
[4]; Compound 315.521 nM
  Lanthascreen signal, sheet CDK2: 0.0105 and 0.00942
[4]; Compound 3155.21 nM
  Lanthascreen signal, sheet CDK2: 0.01064 and 0.008324
[4]; Compound 10002 nM
  Lanthascreen signal, sheet CDK2: 0.005535 and 0.005659
[4]; Lanthascreen, average, Extended Data Fig. 8, read-out: CDK2 IC50
  IC50: > 10000 nM
[4]; [7]
  IC50: > 10000 nM
[5]
  EC50: 10 nM
  Toxicity rescue: 610%
[6]
  TR-FRET signal at compound concentration 0.468 nM: 0.3328 and 0.3098
  TR-FRET signal at compound concentration 2.16 nM: 0.4001 and 0.3765
  TR-FRET signal at compound concentration 3.6 nM: 0.5431 and 0.4961
  TR-FRET signal at compound concentration 7.92001 nM: 0.8328 and 0.7643
  TR-FRET signal at compound concentration 15.84 nM: 1.412 and 1.246
  TR-FRET signal at compound concentration 30.96 nM: 2.416 and 2.183
  TR-FRET signal at compound concentration 62.6401 nM: 3.349 and 3.281
  TR-FRET signal at compound concentration 125.28 nM: 3.867 and 3.698
  TR-FRET signal at compound concentration 244.8 nM: 3.9597 and 3.8541
  TR-FRET signal at compound concentration 993.601 nM: 3.967 and 3.873
  TR-FRET signal at compound concentration 2001.6 nM: 4.005 and 3.884
[6]; [8]
  EC50: 28 ± 1 nM
[6]; sheet MOESM7, read-out: log TR-FRET EC50 (converted)
  EC50: 27.6 nM
[6]; [9]
  EC50: 27.6 nM

## Fc1ccc2[nH]c(CNc3nc(N4CCOCC4)nc4c(Br)cnn34)nc2c1F [DS72]
[1]
  IC50: 1 nM
[1]; compound 1.02544 nM
  Lanthascreen raw signal, sheet CDK12: 0.008081 and 0.009101
[1]; compound 3.15521 nM
  Lanthascreen raw signal, sheet CDK12: 0.008849 and 0.007319
[1]; compound 9.46563 nM
  Lanthascreen raw signal, sheet CDK12: 0.006356 and 0.00835
[1]; compound 31.5521 nM
  Lanthascreen raw signal, sheet CDK12: 0.005926 and 0.005481
[1]; compound 99.3891 nM
  Lanthascreen raw signal, sheet CDK12: 0.005678 and 0.004673
[1]; compound 315.521 nM
  Lanthascreen raw signal, sheet CDK12: 0.005163 and 0.006077
[1]; compound 3155.21 nM
  Lanthascreen raw signal, sheet CDK12: 0.003862 and 0.004893
[1]; compound 10002 nM
  Lanthascreen raw signal, sheet CDK12: 0.003963 and 0.004045
[2]; read-out: DC50
  DC50: 6 nM
[3]
  IC50: 104 nM
[3]; compound 1.02544 nM
  Lanthascreen TR-FRET signal (raw ratio), sheet CDK9: 0.0138 and 0.01522
[3]; compound 3.15521 nM
  Lanthascreen TR-FRET signal (raw ratio), sheet CDK9: 0.01223 and 0.01249
[3]; compound 9.46563 nM
  Lanthascreen TR-FRET signal (raw ratio), sheet CDK9: 0.0129 and 0.01178
[3]; compound 31.5521 nM
  Lanthascreen TR-FRET signal (raw ratio), sheet CDK9: 0.00952 and 0.01286
[3]; compound 99.3891 nM
  Lanthascreen TR-FRET signal (raw ratio), sheet CDK9: 0.008274 and 0.008068
[3]; compound 315.521 nM
  Lanthascreen TR-FRET signal (raw ratio), sheet CDK9: 0.006761 and 0.006072
[3]; compound 3155.21 nM
  Lanthascreen TR-FRET signal (raw ratio), sheet CDK9: 0.003594 and 0.002711
[3]; compound 10002 nM
  Lanthascreen TR-FRET signal (raw ratio), sheet CDK9: 0.003294 and 0.003353
[4]; Compound 1.02544 nM
  Lanthascreen signal, sheet CDK2: 0.009384 and 0.009817
[4]; Compound 3.15521 nM
  Lanthascreen signal, sheet CDK2: 0.009333 and 0.009829
[4]; Compound 9.46563 nM
  Lanthascreen signal, sheet CDK2: 0.009654 and 0.01088
[4]; Compound 31.5521 nM
  Lanthascreen signal, sheet CDK2: 0.008522 and 0.009526
[4]; Compound 99.3891 nM
  Lanthascreen signal, sheet CDK2: 0.01016 and 0.009968
[4]; Compound 315.521 nM
  Lanthascreen signal, sheet CDK2: 0.008698 and 0.009504
[4]; Compound 3155.21 nM
  Lanthascreen signal, sheet CDK2: 0.005132 and 0.004872
[4]; Compound 10002 nM
  Lanthascreen signal, sheet CDK2: 0.003933 and 0.00458
[4]; [7]
  IC50: 1060 nM
[5]
  EC50: 6 nM
  Toxicity rescue: 533%
[6]
  TR-FRET signal at compound concentration 0.468 nM: 0.3453 and 0.3314 and 0.2038 and 0.2054
  TR-FRET signal at compound concentration 2.16 nM: 0.4522 and 0.4261 and 0.3132 and 0.3307
  TR-FRET signal at compound concentration 3.6 nM: 0.6871 and 0.6344 and 0.5591 and 0.6106
  TR-FRET signal at compound concentration 7.92001 nM: 1.2161 and 1.061 and 1.142 and 1.169
  TR-FRET signal at compound concentration 15.84 nM: 2.149 and 1.974 and 2.1219 and 2.262
  TR-FRET signal at compound concentration 30.96 nM: 3.31 and 3.181 and 2.938 and 2.942
  TR-FRET signal at compound concentration 62.6401 nM: 3.363 and 3.323 and 3.061 and 3.125
  TR-FRET signal at compound concentration 125.28 nM: 3.473 and 3.376 and 3.04 and 3.123
  TR-FRET signal at compound concentration 244.8 nM: 3.475 and 3.275 and 3.121 and 3.153
  TR-FRET signal at compound concentration 993.601 nM: 3.459 and 3.133 and 3.073
  TR-FRET signal at compound concentration 2001.6 nM: 3.344 and 3.271 and 3.14 and 3.1113
[6]; [8]
  EC50: 12 ± 1 nM
[6]; [9]
  EC50: 12.2 nM
